# Experimental data published in ChEMBL document CHEMBL3526084, “Cytochrome P450 dysregulations in thioacetamide-induced liver cirrhosis in rats and the counteracting effects of hepatoprotective agents” (Drug Metab Dispos, 2012).
# The source made the active and inactive calls. No cut-off for these calls is given here.
# Assays:
# Liver microsome [1] = test: Reversal of thioacetamide-induced CYP1A2 inactivation in rat liver microsomes at 0.2 to 5 mM in presence of NADPH; assay type: functional
# Liver microsome [2] = test: Reversal of thioacetamide-induced CYP3A2 inactivation in rat liver microsomes at 2 to 50 uM in presence of NADPH; assay type: functional
# Liver microsome [3] = test: Reversal of thioacetamide-induced CYP3A2 inactivation in rat liver microsomes at 0.2 to 5 mM in presence of NADPH; assay type: functional
# Rattus norvegicus [4] = test: Hepatoprotective activity in thioacetamide-induced Sprague-Dawley rat liver cirrhosis model assessed as downregulation of CYP2C6 protein level at 200 mg/kg administered intragastrically qd for 2 weeks by Western blotting analysis relative to control; assay type: functional, organism-based; design: dose 200 mg/kg
# Liver microsome [5] = test: Reversal of thioacetamide-induced CYP1A2 inactivation in rat liver microsomes at 2 to 50 uM in presence of NADPH; assay type: functional
# Rattus norvegicus [6] = test: Upregulation of CYP2C6 in Sprague-Dawley rat liver at 200 mg/kg administered intragastrically qd for 2 weeks by Western blotting analysis; assay type: ADME, organism-based; design: dose 200 mg/kg, route intragastric; settings: in vivo, po, 336 h
# Rattus norvegicus [7] = test: Hepatoprotective activity in thioacetamide-induced Sprague-Dawley rat liver cirrhosis model assessed as reversal of thioacetamide-induced change in serum TBIL level at 200 mg/kg administered intragastrically qd for 2 weeks by […]; assay type: functional, organism-based; design: dose 200 mg/kg
# Rattus norvegicus [8] = test: Hepatoprotective activity in thioacetamide-induced Sprague-Dawley rat liver cirrhosis model assessed as reversal of thioacetamide-induced change in serum ALT level at 200 mg/kg administered intragastrically qd for 2 weeks by […]; assay type: functional, organism-based; design: dose 200 mg/kg
# Rattus norvegicus [9] = test: Hepatoprotective activity in thioacetamide-induced Sprague-Dawley rat liver cirrhosis model assessed as downregulation of CYP1A2 protein level at 200 mg/kg administered intragastrically qd for 2 weeks by Western blotting analysis relative to control; assay type: functional, organism-based; design: dose 200 mg/kg
# Liver microsome [10] = test: Reversal of thioacetamide-induced CYP2C6 inactivation in rat liver microsomes at 2 to 50 uM in presence of NADPH; assay type: functional
# Rattus norvegicus [11] = test: Upregulation of CYP2E1 in Sprague-Dawley rat liver at 200 mg/kg administered intragastrically qd for 2 weeks by Western blotting analysis; assay type: ADME, organism-based; design: dose 200 mg/kg, route intragastric; settings: in vivo, po, 336 h
# Rattus norvegicus [12] = test: Downregulation of CYP1A2 in Sprague-Dawley rat liver at 200 mg/kg administered intragastrically qd for 2 weeks by Western blotting analysis; assay type: ADME, organism-based; design: dose 200 mg/kg, route intragastric; settings: in vivo, po, 336 h
# Rattus norvegicus [13] = test: Hepatoprotective activity in thioacetamide-induced Sprague-Dawley rat liver cirrhosis model assessed as reversal of thioacetamide-induced change in serum AST level at 200 mg/kg administered intragastrically qd for 2 weeks by […]; assay type: functional, organism-based; design: dose 200 mg/kg
# Liver microsome [14] = test: Reversal of thioacetamide-induced CYP2C6 inactivation in rat liver microsomes at 0.2 to 5 mM in presence of NADPH; assay type: functional
# Rattus norvegicus [15] = test: Hepatoprotective activity in thioacetamide-induced Sprague-Dawley rat liver cirrhosis model assessed as downregulation of CYP3A2 protein level at 200 mg/kg administered intragastrically qd for 2 weeks by Western blotting analysis relative to control; assay type: functional; settings: route intragastric
# Rattus norvegicus [16] = test: Hepatoprotective activity in thioacetamide-induced Sprague-Dawley rat liver cirrhosis model assessed as downregulation of CYP2E1 protein level at 200 mg/kg administered intragastrically qd for 2 weeks by Western blotting analysis relative to control; assay type: functional; settings: route intragastric
# Liver microsome [17] = test: Reversal of thioacetamide-induced CYP2E1 inactivation in rat liver microsomes at 2 to 50 uM in presence of NADPH; assay type: functional
# Rattus norvegicus [18] = test: Upregulation of CYP3A2 in Sprague-Dawley rat liver at 200 mg/kg administered intragastrically qd for 2 weeks by Western blotting analysis; assay type: ADME, organism-based; design: dose 200 mg/kg, route intragastric; settings: in vivo, po, 336 h
# Liver microsome [19] = test: Reversal of thioacetamide-induced CYP2E1 inactivation in rat liver microsomes at 0.2 to 5 mM in presence of NADPH; assay type: functional
structure (smiles),measurement,setting,value
COC(=O)c1cc(OC)c2c(c1-c1c(C(=O)OC)cc(OC)c3c1OCO3)OCO2 [BIFENDATE],Activity,Liver microsome [1],inactive
same,Activity,Liver microsome [2],inactive
same,Activity,Liver microsome [3],inactive
same,Activity,Rattus norvegicus [4],Active
same,Activity,Liver microsome [5],inactive
same,Activity,Rattus norvegicus [6],Active
same,Activity,Rattus norvegicus [7],Active
same,Activity,Rattus norvegicus [8],Active
same,Activity,Rattus norvegicus [9],Active
same,Activity,Liver microsome [10],inactive
same,Activity,Rattus norvegicus [11],Active
same,Activity,Rattus norvegicus [12],Active
same,Activity,Rattus norvegicus [13],Active
same,Activity,Liver microsome [14],inactive
same,fold change (FC),Rattus norvegicus [15],1.56
same,fold change (FC),Rattus norvegicus [16],2.26
same,Activity,Liver microsome [17],inactive
same,Activity,Rattus norvegicus [18],Active
same,Activity,Liver microsome [19],inactive
